Results on one compound are retold here after ChEMBL document CHEMBL1150344, “Interaction of antagonists with calmodulin: insights from molecular dynamics simulations” (J Med Chem, 2008).

The target of the assay is Calmodulin-1 (Homo sapiens, UniProt P0DP23). Description: Binding affinity to calmodulin.

SMILES strings stand for the structures.

Broadly, the Kd is a measure of binding affinity in units of concentration. Read a low Kd as tighter binding. `CCCCOc1ccc([C@@H](C)NCCCNCCC(c2ccccc2)c2ccccc2)cc1OCCCC` showed a Kd of 18 nM.
